Data taken from article PMC6838151 (Scientific Reports, 2019).
≈ marks a conversion by molar mass, not a printed value. Where two headings read alike, the source gives them in different places.

Key:
C. albicans Gu5 = experiment: microbe, parasite or virus in culture; type: cell-based, Candida albicans; conditions: for times more resistant than Gu4 strain: Gu5 vs Gu4
Source text: (§1) The C. albicans CAF2-1 (Genotype/Description: ura3Δ::imm434/URA3[89]) and DSY1050 (Genotype/Description: cdr1Δ::hisG/cdr1Δ::hisG/cdr2Δ::hisG/cdr2Δ::hisG/mdr1Δ::hisG-URA3-hisG/mdr1Δ::hisG[90]) strains used in this study were generous gift from D. Sanglard (Lausanne, Switzerland)[91],[92] whereas C. albicans B3 and Gu4 (Genotype/Description: clinical isolates fluconazole sensitive)[93]), B4 (Genotype/Description: Clinical isolate fluconazole resistant due to the overexpression of MDR1[93]) and Gu5 (Genotype/Description: Clinical isolate fluconazole resistant due to the overexpression of CDR1 and CDR2[93]) were a generous gift from prof. S. Milewski (Gdańsk, Poland)[94] and prof. J. Morschhäuser (Wurzburg, Germany)[93]. All strains were grown at 37 °C on Sabouraud medium (Biomerieux).
(§2) The antifungal activity was determined on the 96-well polystyrene microtiter plates (Sarstedt) according to Clinical and Laboratory Standards Institute M27-A3[95]. […] The compounds were dissolved in DMSO (10 mM) and then serially diluted in RPMI-1640 (ThermoFisher) medium to obtain the final concentration range. Inocula of all strains were prepared as suspensions with turbidity of 0.5 McFarland standard in sterile 0.85% saline and diluted in RPMI-1640. After inoculation, each well contained appr. 5 × 10^2 CFU/mL. The plates were cultivated for 48 h at 37 °C. Optical density was measured at A490nm using a microplate reader ASYS UVM 340 (Biogenet).

C. albicans DSY1050 = experiment: microbe, parasite or virus in culture; type: cell-based, Candida albicans; conditions: for MIC50: Candida albicans, DSY1050, 48 h; for times more susceptible than parental strain (CAF2-1): DSY1050 vs CAF2-1
Source text: as §1, §2

C. albicans B4 = experiment: microbe, parasite or virus in culture; type: cell-based, Candida albicans; conditions: for times higher resistance of B4 than B3: B4 vs B3; for MIC50: Candida albicans, B4, 48 h
Source text: as §1, §2

C. albicans CAF2-1 = experiment: microbe, parasite or virus in culture; type: cell-based, Candida albicans; conditions: for times more active than Flc: C. albicans CAF2-1, MIC50 ratio; for MIC50: Candida albicans, CAF21, 48 h
Source text: as §1, §2

[1] = test system: hASCs (p53, p21, BAX, BCL-2 transcripts); experiment: Apoptosis-related transcripts by qRT-PCR in hASCs; type: cell-based, human; conditions: 20 µM, 24 h; for expression of p53 gene / expression of p21 transcript / relative expression level of BAX / relative expression level of BCL-2: hASCs; for expression of p53 gene: vs control cells; for expression of p21 transcript: vs control group, p < 0.001; for relative expression level of BAX / relative expression level of BCL-2: vs control, differences not significant
Description: Cellular apoptosis level was assessed using quantitative reverse transcriptase real-time polymerase chain reaction (qRT-PCR). First, the cells were seeded in a 24-well plate at a concentration of 3 × 10^4 cells/well in DMEM with Nutrient F-12 Ham complete medium and left in the CO2 incubator overnight to allow cells to attach. […] After 24 h of challenge with the compounds, the cells were homogenized with TRI Reagent and total RNA was isolated by phenol-chloroform extraction and ethanol precipitation. RNA purity and quantity were measured at a wavelength of 260 and 280 nm (Epoch, Biotek). Genomic DNA was removed with DNase I, RNase-free ([…]) (Thermo Scientific, Poland) and cDNA was synthesized using RevertAid First Strand cDNA Synthesis Kit (Thermo Scientific, Poland). 150 ng of total RNA served as a template for a single reaction using T100 Thermo Cycler (Bio-Rad, USA). The expression levels of p53 tumor suppressor, cyclin dependent kinase inhibitor 1A (p21), apoptosis regulators BAX and BCL-2 were determined. qRT-PCR was performed on a CFX Connect^TM Real-Time PCR Detection System (Bio-Rad) using SensiFast SYBR & Fluorescein Kit (Bioline, Cincinnati, OH, USA) and primer pairs as listed in Table S4 in ESI. 500 nM of specific primers and 1 µL of cDNA in a 10 µL final volume were applied in each reaction. The quantitative expression of the genes was calculated by the 2^−ΔΔCT method using GAPDH as housekeeping genes.
Statistical analysis was performed with GraphPad Prism 5 software (San Diego, USA). All data values are presented as mean ± SD, measured in triplicates or more. Statistical significance between groups was determined using two-way ANOVA grouped analysis.

[2] = Cytotoxicity IC50, TOX-8 resazurin assay, hASCs, 24 h; type: cell-based, human; conditions: female, human
Description: Human Adipose Tissue-derived Stem Cells (hASCs) were isolated from subcutaneous adipose tissue fragments harvested from non-diabetic female donors (age range 33–38, n = 2) during standard surgical procedure of total hip arthroplasty. Immediately after collection of tissue, the samples were placed in sterile tissue-transport medium (Hank’s Balanced Salt Solution (HBSS) supplemented with 1% Penicillin/Streptomycin/Amphotericin B solution (P/S/A). Mesenchymal stromal cell isolation was performed using enzymatic digestion of extracellular matrix with collagenase type I. Before digestion, tissue specimens were washed twice with HBSS and incubated in collagenase type I solution (1 mg/mL) at 37 °C for 40 min. The digest was subsequently centrifuged (1200 × g; 10 minutes; room temperature) and the cell pellet was resuspended in Dulbecco’s modified Eagle’s medium (DMEM) with Nutrient F-12 Ham, 10% of Fetal Bovine Serum (FBS), and 1% of P/S/A, transferred to a culture flask, and kept in culture under optimal conditions (37 °C in a humidified atmosphere of 5% CO2). The medium was refreshed every 2–3 days. At 80–90% confluence, the cells were passaged using trypsin solution (TrypLE Express, Life Technologies, California, USA). At passage 3, hASCs were collected and cellular phenotype was confirmed by the high expression of markers CD44, CD29, CD73, CD105 and low expression of CD45. Moreover, the trilineage differentiation capacity of ASCs was confirmed as previously described.
The IC50 values were determined using in vitro Toxicology TOX-8 Assay Kit (resazurin based) according to the manufacturer’s protocol. For this assay, cells were seeded in a 96-well plate at a density of 5 × 10^3 cells/well. The cells were pre-incubated in drug-free complete medium for 24 h before adding various concentrations of the compounds to be investigated. Stock solutions of the compounds were prepared in DMSO following serial dilutions in DMEM with Nutrient F-12 Ham complete medium. The cells exposure period was 24 h. After that time media were replaced with 10% v/v resazurin dye solution in fresh complete culture medium. Incubation was carried out for 2 h at 37 °C in the CO2 incubator. Reduction of the dye was measured spectrophotometrically at 600 nm and 690 nm reference wavelength (Epoch, Biotek). Absorbance measurements allowed the determination of viable treated cells relative to untreated controls using the inflection point of a dose-response graph. IC50 values were estimated as duplicates of triplicate readings in two independent experiments.

[3] = hASCs, TOX-8 assay, 24 h, read-out: IC50 (cytotoxicity, hASCs viability)
[4] = C. albicans Gu5, RPMI-1640, 37 °C, 48 h

SMILES | MIC50 (C. albicans Gu5; Candida albicans, GU5, 48 h) [µM] | times more resistant than Gu4 strain (C. albicans Gu5) | MIC50 (C. albicans DSY1050) [µM] | times more susceptible than parental strain (CAF2-1) (C. albicans DSY1050) | times higher resistance of B4 than B3 (C. albicans B4) | MIC50 (C. albicans B4) [µM] | times more active than Flc (C. albicans CAF2-1) | MIC50 (C. albicans CAF2-1) [µM] | induction of apoptosis in hASC cultures [1] | expression of p53 gene [1] | expression of p21 transcript [1] | relative expression level of BAX [1] | relative expression level of BCL-2 [1] | IC50 at 24 h ([2]; IC50 (cytotoxicity, hASCs viability)) [µM] | IC50 at 24 h [2, 3] [µM] | MIC50 (C. albicans Gu5; [4])
O=P(CN1CCN(c2ccc(OC[C@H]3CO[C@](Cn4ccnc4)(c4ccc(Cl)cc4Cl)O3)cc2)CC1)(c1ccccc1)c1ccccc1 (racemic) [KeOP, Ph2P(O)CH2-Ke] | 25 (≈ 17.6 µg/mL) | two | 0.2 (≈ 0.141 µg/mL) | four | two | 3.13 (≈ 2.2 µg/mL) | eight | 0.78 (≈ 0.549 µg/mL) | did not induce apoptosis | no significant changes | elevated expression | higher | higher | – | – | –
Clc1ccc([C@@]2(Cn3ccnc3)OC[C@H](COc3ccc(N4CCN(CP(c5ccccc5)c5ccccc5)CC4)cc3)O2)c(Cl)c1 (racemic) [KeP, Ph2PCH2-Ke] | 50 (≈ 34.4 µg/mL) | sixteen | 0.78 (≈ 0.536 µg/mL) | four | eight | 3.13 (≈ 2.15 µg/mL) | two | 3.13 (≈ 2.15 µg/mL) | did not induce apoptosis | no significant changes | elevated expression | higher | higher | 37.6 | – | –
CC(=O)N1CCN(c2ccc(OCC3COC(Cn4ccnc4)(c4ccc(Cl)cc4Cl)O3)cc2)CC1 (stereo not shown) [Ke, ketoconazole, reference compound] | 50 (≈ 26.6 µg/mL) | – | 0.02 (≈ 0.0106 µg/mL) | – | – | 0.39 (≈ 0.207 µg/mL) | – | 0.05 (≈ 0.0266 µg/mL) | did not induce apoptosis | no significant changes | elevated expression | – | – | – | 121 | –
S=P(CN1CCN(c2ccc(OC[C@H]3CO[C@](Cn4ccnc4)(c4ccc(Cl)cc4Cl)O3)cc2)CC1)(c1ccccc1)c1ccccc1 [KeSP, Ph2P(S)CH2-Ke] | > 200 | – | 0.39 (≈ 0.281 µg/mL) | eight | two | 3.13 (≈ 2.25 µg/mL) | two | 3.13 (≈ 2.25 µg/mL) | – | – | – | – | – | – | – | no inhibitory effect
Clc1ccc([C@@]2(Cn3ccnc3)OC[C@H](COc3ccc(N4CCN(CP(=[Se])(c5ccccc5)c5ccccc5)CC4)cc3)O2)c(Cl)c1 [KeSeP, Ph2P(Se)CH2-Ke] | > 200 | – | 0.78 (≈ 0.598 µg/mL) | four | two | 6.25 (≈ 4.79 µg/mL) | two | 3.13 (≈ 2.4 µg/mL) | – | – | – | – | – | – | 110 | no inhibitory effect
